In article PMC9921896 (Molecules, 2023):

What was measured:
Test in all cases: Single concentration Kobs assay (time-dependent inhibition) in HLM
CYP3A4/5 = format: biochemical, human; details: for Kobs 3A4: HLM, 0.02 min^−1 indicates TD inhibition potential; for Kobs 3A4 / inhibition at 30 min: single concentration; for Single concentration Kobs assay (risk bin) 3A4: TD inhibition class from Kobs vs 0.02 min^−1 (Table 5 traffic lights); for inhibition at 30 min: human, human liver microsomes, significant if >50%, read-out: 3A4 R_Inh% (reversible inhibition)
Text: (§1) CYP inhibition evaluation is typically performed by either IC50 at single-point or IC50 Shift or abbreviated assay such as the first-order inactivity rate constant (K obs ) at single concentration.
(§2) This method yielded good correlations between the percent inhibition at 10 or 25 μ M and kinact/KI. Evaluation of TD inhibition at single concentration has been implemented in several drug discovery programs. […] Therefore, in this study, a single K obs approach has been utilized to understand the TD inhibition potential of TbB ligands. Ideally, the inhibition of CYPs can be reversible or irreversible. The data obtained from single-concentration K obs studies were analyzed to understand the same. From the data presented in Table 4, the TbB ligands have values less than 50% for reversible inhibition (R_Inh). As the qualified % reversible inhibition is considered significant if >50%, no significant reversible inhibition is observed for TbB ligands. Knowledge about enzyme inactivation half-life (E½) is also equally important as it would provide insight into the TD inhibition of a compound. E½ can be used to bin the compounds as positive or negative TD inhibitors if the values are <28 or >28, respectively. The TbB ligand 223-2 is observed to be a weak positive TD inhibitor of 1A2 and is negative TD inhibitor to the other six CYP isoforms.
(§3) The time-dependent inhibition (TDI) potential of test compounds against CYP1A2, 2B6, 2C8, 2C9, 2C19, 2D6, 3A4/5 isoforms were determined using Human liver microsomes. Assay is performed in 96-deep well plate format (n = 1). Positive controls and DMSO as negative control in each assay. To obtain 100 μ M working stock solution, 1 μ L of blank DMSO/test/reference compounds to 100 μ L 1× DPBS buffer was added and labeled as dilution plate. To the primary incubation plate, 45 μ L of primary mix was dispensed to the desired wells containing 25 μ L HLM, 10 μ L MgCl2, and 10 μ L of NADPH working solutions. To the secondary incubation plate, 95 μ L of secondary mix was dispensed to the desired wells containing 20 μ L MgCl2, 20 μ L NADPH, 10 μ L respective substrates for CYP isoform working solutions and 45 μ L 1× DPBS buffer. Each of these four plates were labeled with their respective time points, i.e., 0, 6, 16, 32 min. Pre-incubated the dilution plate along with primary incubation plate at 37 °C for 15 min at 450 rpm. The reaction was carried out in triplicate. After the incubation, the reaction was quenched by adding 150 μ L ice cold stop solution to all the wells followed by centrifuging the samples at 4000 rpm, 4 °C for 15 min. The supernatant samples were then transferred into vials for LC-MS/MS analysis. The percent Reversible Inhibition was calculated using the following formula. %Reversibleinhibition=100−(PARtestcompt0×100)/(PARaverageDMSOt0)

CYP2B6 = molecular target: T1, CYP2B6 (Homo sapiens, UniProt P20813); format: biochemical; details: human liver microsomes, significant if >50%, read-out: 2B6 R_Inh% (reversible inhibition)
T1 construct: Using HLM as the enzyme source; from tissue; host or cells: human liver microsomes
T1 sequence (P20813 1-491): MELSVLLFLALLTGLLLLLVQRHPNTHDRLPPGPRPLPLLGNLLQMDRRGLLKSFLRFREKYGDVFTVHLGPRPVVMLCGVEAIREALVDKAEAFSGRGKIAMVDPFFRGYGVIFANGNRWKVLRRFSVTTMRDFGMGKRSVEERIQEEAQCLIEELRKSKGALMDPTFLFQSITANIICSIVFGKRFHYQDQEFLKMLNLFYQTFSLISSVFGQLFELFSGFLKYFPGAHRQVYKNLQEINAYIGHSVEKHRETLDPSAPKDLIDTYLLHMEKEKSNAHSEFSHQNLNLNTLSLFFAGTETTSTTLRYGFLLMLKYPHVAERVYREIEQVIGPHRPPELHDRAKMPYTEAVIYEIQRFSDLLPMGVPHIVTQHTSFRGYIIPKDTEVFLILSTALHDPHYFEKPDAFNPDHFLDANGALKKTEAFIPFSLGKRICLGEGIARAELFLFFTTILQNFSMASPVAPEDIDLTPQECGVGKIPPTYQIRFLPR

CYP1A2 = molecular target: T2, CYP1A2 (Homo sapiens, UniProt P05177); format: biochemical; details: for Kobs 1A2: HLM, 0.02 min^−1 indicates TD inhibition potential; for Kobs 1A2 / inhibition at 30 min: single concentration; for Single concentration Kobs assay (risk bin) 1A2: TD inhibition class from Kobs vs 0.02 min^−1 (Table 5 traffic lights); for inhibition at 30 min: human, human liver microsomes, significant if >50%, read-out: 1A2 R_Inh% (reversible inhibition)
T2 construct: Using HLM as the enzyme source; from tissue; host or cells: human liver microsomes
T2 sequence (P05177 1-516): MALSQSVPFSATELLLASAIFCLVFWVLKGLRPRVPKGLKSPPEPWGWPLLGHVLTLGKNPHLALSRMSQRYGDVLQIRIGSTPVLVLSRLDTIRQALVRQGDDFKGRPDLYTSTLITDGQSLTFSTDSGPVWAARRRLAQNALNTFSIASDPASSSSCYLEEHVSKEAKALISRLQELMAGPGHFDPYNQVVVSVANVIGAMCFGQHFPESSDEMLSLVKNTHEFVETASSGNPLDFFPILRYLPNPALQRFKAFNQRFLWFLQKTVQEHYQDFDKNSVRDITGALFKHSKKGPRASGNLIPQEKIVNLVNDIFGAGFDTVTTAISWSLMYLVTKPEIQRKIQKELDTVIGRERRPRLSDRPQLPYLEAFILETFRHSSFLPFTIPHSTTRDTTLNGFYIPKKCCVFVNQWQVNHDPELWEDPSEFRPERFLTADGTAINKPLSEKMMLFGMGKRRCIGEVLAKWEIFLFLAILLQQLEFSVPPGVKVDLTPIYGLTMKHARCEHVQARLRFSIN
Text: as §1, §2
as §3, with “Each of these four plates were labeled with their respective time points, i.e., 0, 6, 16, 32 min.” left out, “The percent Reversible Inhibition was calculated using the following formula. %Reversibleinhibition=100−(PARtestcompt0×100)/(PARaverageDMSOt0)” left out

CYP2C9 = molecular target: T3, CYP2C9 (Homo sapiens, UniProt P11712); format: biochemical; details: for Kobs 2C9: HLM, 0.02 min^−1 indicates TD inhibition potential; for Kobs 2C9 / inhibition at 30 min: single concentration; for Single concentration Kobs assay (risk bin) 2C9: TD inhibition class from Kobs vs 0.02 min^−1 (Table 5 traffic lights); for inhibition at 30 min: human, human liver microsomes, significant if >50%, read-out: 2C9 R_Inh% (reversible inhibition)
T3 construct: Using HLM as the enzyme source; from tissue; host or cells: human liver microsomes
T3 sequence (P11712 whole entry): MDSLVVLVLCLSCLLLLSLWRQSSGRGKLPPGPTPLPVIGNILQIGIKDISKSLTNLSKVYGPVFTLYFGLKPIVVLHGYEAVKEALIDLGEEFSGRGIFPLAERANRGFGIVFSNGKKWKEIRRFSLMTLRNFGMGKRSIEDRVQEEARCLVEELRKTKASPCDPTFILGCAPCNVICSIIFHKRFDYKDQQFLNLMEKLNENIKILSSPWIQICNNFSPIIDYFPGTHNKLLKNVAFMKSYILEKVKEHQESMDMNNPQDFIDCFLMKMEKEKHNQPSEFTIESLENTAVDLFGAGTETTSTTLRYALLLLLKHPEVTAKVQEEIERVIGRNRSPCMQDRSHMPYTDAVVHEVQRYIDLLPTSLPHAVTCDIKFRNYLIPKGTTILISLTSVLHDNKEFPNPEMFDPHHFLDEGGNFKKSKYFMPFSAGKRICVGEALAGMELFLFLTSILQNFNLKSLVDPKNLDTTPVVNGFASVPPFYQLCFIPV
Text: as §1, §2
as §3, with “Each of these four plates were labeled with their respective time points, i.e., 0, 6, 16, 32 min.” left out, “The percent Reversible Inhibition was calculated using the following formula. %Reversibleinhibition=100−(PARtestcompt0×100)/(PARaverageDMSOt0)” left out

SMILES	Kobs 3A4 (CYP3A4/5) [min⁻¹]	Single concentration Kobs assay (risk bin) 3A4 (CYP3A4/5)	inhibition at 30 min (CYP3A4/5) [%]	inhibition at 30 min (CYP2B6) [%]	Kobs 1A2 (CYP1A2) [min⁻¹]	Kobs 1A2 (CYP1A2; listed as 223-03) [min⁻¹]	Single concentration Kobs assay (risk bin) 1A2 (CYP1A2)	inhibition at 30 min (CYP1A2) [%]	Kobs 2C9 (CYP2C9) [min⁻¹]	Kobs 2C9 (CYP2C9; listed as 223-03) [min⁻¹]	Single concentration Kobs assay (risk bin) 2C9 (CYP2C9)	inhibition at 30 min (CYP2C9) [%]	Kobs 1A2 (CYP1A2; listed as 223-02) [min⁻¹]
Cc1cc(-c2nnn(-c3cc(C)c(O)c(C)c3)n2)cc(C)c1O [223-3]	0.02143	weak positive inhibitor	< 50	< 50	0.0333	0.03334	positive inhibitor	< 50	0.0748	0.07477	positive inhibitor	< 50	–
COc1cc(-c2nnn(-c3cc(OC)c(O)c(OC)c3)n2)cc(OC)c1O [223-2]	0.006312	negative inhibitor	< 50	< 50	0.0159	–	weak positive inhibitor	< 50	0.005304	–	negative inhibitor	< 50	0.01594
Oc1ccc(-c2nnn(-c3ccc(O)cc3)n2)cc1 [223-10]	0.001719	negative inhibitor	< 50	< 50	0.01456	–	weak positive inhibitor	< 50	–	–	positive inhibitor	< 50	–
